This note sets out measurements from PubChem BioAssay AID1996.

Each structure is given as a SMILES string. ≈ marks a conversion by molar mass, not a printed value.

The conditions of this data set: buffer; pH 7.4; 200.0 µM.
As to `Cn1cc(C(=O)Nc2ccc(C#N)cc2)c2ccccc2c1=O`, the solubility (kinetic) is below 0.2 µg/mL. Consider `O=S(=O)(c1ccccc1F)N1CCc2ccccc2C1`, for which the solubility (kinetic) is below 0.6 µg/mL. On to `CCOC(=O)c1[nH]cnc1C(=O)Nc1ccc([N+](=O)[O-])cc1`, for which the solubility (kinetic) was 5 µg/mL (≈ 16.4 µM). To `O=C(Nc1ccc(N2CCOCC2)cc1N1CCOCC1)c1ccc(F)cc1` belongs 42.2 µg/mL (≈ 109 µM); to `O=C(/C=C/c1ccc(S(=O)(=O)N2CCOCC2)cc1)Nc1cc(F)ccc1F`, 5.5 µg/mL (≈ 13.5 µM); to `Cn1c(SCc2ccccc2Br)nc2ccccc2c1=O`, 0.4 µg/mL (≈ 1.11 µM). Then `CCOc1ccc(C2C3=C(CCCC3=O)OC(N)=C2[N+](=O)[O-])cc1` (stereo unspecified), with above 49.6 µg/mL; and `O=C1C(Cc2ccc(O)cc2)NC(=S)N1C1CCCCC1` (stereo unspecified), with 44.9 µg/mL (≈ 147 µM). As for `C=CCOc1ccccc1CNCc1ccc(F)cc1.Cl`, the kinetic solubility is above 46.2 µg/mL. To `COc1ccccc1C(=O)Nc1ccc(NC(=O)C2CCCCC2)nc1` belongs 0.9 µg/mL (≈ 2.55 µM).

Compound `O=C(Cn1c2ccc(F)cc2c2nc3n(c(=O)c21)CCS3)N1CCCC1` came in with a solubility (kinetic) above 55.9 µg/mL.

Consider `NC(=O)c1ccccc1N`, for which the kinetic solubility is above 20.4 µg/mL. In the case of `CCN(C(=S)NC(=O)C1CCCC1)C1CCCCC1`, the solubility (kinetic) is above 42.4 µg/mL.

`O=C(c1ccc([N+](=O)[O-])cc1)N1CCN=C1SCc1ccccc1` gave a solubility (kinetic) of 17.4 µg/mL (≈ 51 µM). Take `Cc1ccc2[nH]c(CCN(C)C)c(CN3CCOCC3)c2c1`: the kinetic solubility was above 45.2 µg/mL. Take `CN1CCCN(C(=O)c2cc3c(s2)CCCC3)CC1`: the kinetic solubility was found to be 39.7 µg/mL (≈ 143 µM). For `O=C(NCc1ccccc1)C1CCCN(c2cnccn2)C1` (stereo unspecified), the solubility (kinetic) is above 44.5 µg/mL. To `O=C1CC(C(=O)Nc2cccc(F)c2)n2c(nc3ccccc32)N1` (stereo unspecified) belongs 0.9 µg/mL (≈ 2.78 µM); to `COc1cccc(Nc2c([N+](=O)[O-])cncc2[N+](=O)[O-])c1`, above 43.5 µg/mL. With `O=S(=O)(c1ccccc1)N1CCN(Cc2ccccc2)CC1`, the kinetic solubility is 0.5 µg/mL (≈ 1.58 µM). Then `O=C(NC1CCC1)C1CCC(=O)N(Cc2ccccc2F)C1` (stereo unspecified), with above 45.7 µg/mL; and `Cc1ccccc1-c1noc(CNC(=O)c2ccco2)n1`, with above 42.5 µg/mL; and `O=C(c1c(F)cccc1F)N1CCCC1`, with above 31.7 µg/mL. To `O=C(CNC(=O)c1ccccc1F)OCC(=O)c1ccc(Cl)s1` belongs above 53.4 µg/mL; to `COc1ccc(CCC(=O)OCC(=O)Nc2sccc2C(N)=O)cc1OC`, 21 µg/mL (≈ 53.5 µM). To `CCCCCCNC(=O)Cc1ccc(Br)cc1` belongs 5 µg/mL (≈ 16.8 µM). In turn, `O=C(Nc1cccnc1Cl)c1cccc(F)c1` had a kinetic solubility of 36.1 µg/mL (≈ 144 µM). Compared with the last compound, the solubility kinetic is about 7.2-fold higher. Then `Cn1cccc1-c1nc2ccccc2n1C`, with above 31.7 µg/mL. Then `Cc1nn(C)c(=O)n1-c1ccccc1`, with above 28.4 µg/mL. To `CCNC(=S)N1CCN(S(=O)(=O)c2ccc(Cl)s2)CC1` belongs 31.4 µg/mL (≈ 88.7 µM). In the case of `CC(Sc1nnc(NC2CC2)s1)C(=O)Nc1ccc(S(N)(=O)=O)cc1` (stereo unspecified), the solubility (kinetic) is above 59.9 µg/mL.

The compound `NC(=O)c1cc(S(=O)(=O)N2CCOCC2)cs1` had a solubility (kinetic) above 41.4 µg/mL.

Consider `OC(CN1CCc2ccccc2C1)c1ccccc1` (stereo unspecified), for which the solubility (kinetic) is above 38 µg/mL.

For the compound `Cc1ccc(S(=O)(=O)N2CCOCC2)cc1C(=O)N1CCN(c2ccc(C(F)(F)F)cn2)CC1`, the solubility (kinetic) is 68.8 µg/mL (≈ 138 µM).

The compound `CCCCCNC(=O)[C@@H]1CSC2c3ccccc3C(=O)N21` (stereo partly specified) gave a solubility (kinetic) of 27.7 µg/mL (≈ 91 µM).

`O=C(/C=C/c1ccc(OCCCF)cc1)N1CCOCC1` gave a kinetic solubility above 44 µg/mL. Then `Cc1sc2ncnc(SCC(=O)NC(C)C(C)C)c2c1C` (stereo unspecified), with 4.6 µg/mL (≈ 14.2 µM); and `CC(C)(CC(=O)O)CC(=O)Nc1cc(C(F)(F)F)cc(C(F)(F)F)c1`, with 46.1 µg/mL (≈ 124 µM); and `O=C(Nc1cccc([N+](=O)[O-])c1)NC1CCCCCCC1`, with 3.8 µg/mL (≈ 13 µM). To `CCN(C(=O)/C=C/c1ccc(OC)cc1)C1CCCCC1` belongs 38.3 µg/mL (≈ 133 µM); to `O=C(Cn1ccc([N+](=O)[O-])n1)NCc1cccnc1`, above 39.2 µg/mL.

A word on the kinetic solubility: it is solubility judged after dilution from a stock solution rather than from solid.
